Here are results for 13 molecules from patent US20180002319A1, “MACROCYCLIC PICOLINAMIDE COMPOUNDS WITH FUNGICIDAL ACTIVITY” (DOW AGROSCIENCES LLC, priority 2014, published 2018).

Where two headings read alike, the source gives them in different places.

The test system of series [1] is Puccinia triticina. The series is described as follows: Wheat Brown Rust (PUCCRT) fungicidal activity. The class given is in vivo. Particulars: for pest or weed control at 100 ppm: High Volume application; for pest or weed control at 121.5 g/ha: Low Volume application, 121.5 g/H. The gist of the method: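 Yuma wheat seedlings at first-leaf stage sprayed to run-off with acetone/water (Triton X-100) solutions, inoculated with P. triticina spores before or after treatment. Overnight dark dew at 22° C, then greenhouse at 24° C; percent disease control from severity versus untreated plants.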

Series [2] concerns Zymoseptoria tritici. The series is described as follows: Leaf Blotch of Wheat (SEPTTR) fungicidal activity. To be noted: wheat leaf blotch; for pest or weed control at 100 ppm: High Volume application; for pest or weed control at 121.5 g/ha: Low Volume application, 121.5 g/H. The class given is in vivo. In outline: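 Wheat seedlings (Yuma, first leaf emerged) were sprayed to run-off with compound in acetone/water containing Triton X-100 and inoculated with Z. tritici spores before or after treatment. Percent disease control comes from 0–100% severity on treated versus untreated plants.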

Where [3] appears, read: 24 h, 1 day protectant, read-out: PUCCRT disease control, 1DP (1 Day Protectant).
[4] abbreviates: 72 h, 3 day curative, read-out: PUCCRT disease control, 3DC (3 Day Curative).
The mark [5] stands for this setting: 24 h, 1 day protectant, read-out: SEPTTR disease control, 1DP (1 Day Protectant).
Where [6] appears, read: 72 h, 3 day curative, read-out: SEPTTR disease control, 3DC (3 Day Curative).

On to `COc1ccnc(C(=O)N[C@H]2COCCC[C@@H](CCC(C)C)[C@H](C)OC2=O)c1OC(C)=O` [Compound 39], for which the melting point lay within 57 to 62 °C. For the same molecule, the pest or weed control at 100 ppm in series [1] (setting [3]) was greater than 80%. Besides, the pest or weed control at 100 ppm in series [1] (setting [4]) was greater than 80%. Besides, in series [2] (setting [5]), the pest or weed control at 100 ppm is greater than 80%. Besides, the pest or weed control at 100 ppm in series [2] (setting [6]) was greater than 80%.

`COc1ccnc(C(=O)N[C@H]2CCOC[C@H](Cc3ccccc3)[C@@H](OCC(C)C)[C@H](C)OC2=O)c1O` [Compound 95] registered a melting point of 197 to 198 °C. In addition, the pest or weed control at 100 ppm in series [1] (setting [3]) is greater than 80%. Besides, the pest or weed control at 100 ppm in series [1] (setting [4]) was less than 80%. Besides, the pest or weed control at 100 ppm in series [2] (setting [5]) was greater than 80%. The pest or weed control at 100 ppm in series [2] (setting [6]) is less than 80%.

As to `CCCO[C@H]1COCC[C@H](NC(=O)c2nccc(OC)c2O)C(=O)O[C@@H](C)[C@@H]1Oc1ccccc1` [Compound 114], the pest or weed control at 100 ppm in series [1] (setting [3]), in series [1] (setting [4]), in series [2] (setting [5]) and in series [2] (setting [6]) was greater than 80% each time.

Regarding `COc1ccc(C[C@H]2CCOC[C@H](NC(=O)c3nccc(OC)c3OCOC(C)=O)C(=O)O[C@@H](C)[C@@H]2Oc2ccccc2)cc1` [Compound 66], the pest or weed control at 121.5 g/ha in series [1] (setting [3]) is greater than 80%; in series [1] (setting [4]) it was less than 80%; in series [2] (setting [5]) it was greater than 80%; in series [2] (setting [6]), greater than 80%.

On to `COc1ccc(CO[C@H]2[C@H](C)OC(=O)[C@@H](NC(=O)c3nccc(OC)c3OCOC(C)=O)CCOC[C@@H]2OCc2ccc(OC)cc2)cc1` [Compound 32], for which the pest or weed control at 121.5 g/ha in series [1] (setting [4]) and in series [2] (setting [6]) was less than 80% each time.

Consider `COc1ccnc(C(=O)N[C@H]2CCCC[C@H](Cc3ccccc3)[C@@H](Oc3ccccc3)[C@H](C)OC2=O)c1OC(C)=O` [Compound 64], for which the pest or weed control at 121.5 g/ha was greater than 80% in series [1] (setting [3]), less than 80% in series [1] (setting [4]), greater than 80% in series [2] (setting [5]) and greater than 80% in series [2] (setting [6]).

Take `COc1ccnc(C(=O)N[C@H]2CCOC[C@H](OCC(C)C)[C@@H](Oc3ccccc3)[C@H](C)OC2=O)c1OCOC(C)=O` [Compound 45]: the pest or weed control at 121.5 g/ha in series [1] (setting [3]), in series [1] (setting [4]), in series [2] (setting [5]) and in series [2] (setting [6]) was greater than 80% in each case.

Consider `COc1ccnc(C(=O)N[C@H]2CCCC[C@H](Cc3ccccc3)[C@@H](OC(=O)C(C)C)[C@H](C)OC2=O)c1OCOC(C)=O` [Compound 60], for which the pest or weed control at 121.5 g/ha in series [1] (setting [3]), in series [1] (setting [4]), in series [2] (setting [5]) and in series [2] (setting [6]) was greater than 80% each time.

For the molecule `COc1ccnc(C(=O)N[C@H]2CCCC[C@H](Oc3ccccc3)[C@@H](Oc3ccccc3)[C@H](C)OC2=O)c1O` [Compound 98], the pest or weed control at 100 ppm in series [1] (setting [3]) was greater than 80%; in series [1] (setting [4]), less than 80%; in series [2] (setting [5]) it was greater than 80%; in series [2] (setting [6]), less than 80%.

In the case of `COc1ccnc(C(=O)N[C@H]2CCOC[C@H](Cc3ccccc3)[C@@H](OCC(C)C)[C@H](C)OC2=O)c1OCOC(C)=O` [Compound 16], the pest or weed control at 100 ppm was greater than 80% in series [1] (setting [3]), greater than 80% in series [1] (setting [4]), greater than 80% in series [2] (setting [5]) and less than 80% in series [2] (setting [6]). Moreover, the pest or weed control at 121.5 g/ha in series [1] (setting [3]) was greater than 80%; in series [1] (setting [4]), less than 80%; in series [2] (setting [5]), less than 80%; in series [2] (setting [6]), less than 80%.

Turning to `CCCO[C@H]1CCCC[C@H](NC(=O)c2nccc(OC)c2OC(C)=O)C(=O)O[C@@H](C)[C@@H]1Oc1ccccc1` [Compound 26], the pest or weed control at 121.5 g/ha in series [1] (setting [3]), in series [1] (setting [4]), in series [2] (setting [5]) and in series [2] (setting [6]) was greater than 80% throughout.

For the molecule `COc1ccnc(C(=O)N[C@H]2COCC[C@H](Cc3ccccc3)[C@@H](Oc3ccccc3)[C@H](C)OC2=O)c1O` [Compound 126], the pest or weed control at 100 ppm in series [1] (setting [3]) was greater than 80%; in series [1] (setting [4]), greater than 80%; in series [2] (setting [5]), greater than 80%; in series [2] (setting [6]) it was less than 80%.

Turning to `COc1ccc(C[C@H]2CCOC[C@H](NC(=O)c3nccc(OC)c3OC(=O)C(C)C)C(=O)O[C@@H](C)[C@@H]2Oc2ccccc2)cc1` [Compound 68], the pest or weed control at 121.5 g/ha in series [1] (setting [3]) was greater than 80%; in series [2] (setting [5]) it was less than 80%; in series [2] (setting [6]), less than 80%.
